Where two headings read alike, the source gives them in different places.
How the values were obtained:
Type in all cases: cell-based
Botrytis cinerea = conditions: 25° C., 1 day or 2 days
Pyricularia oryzae = conditions: 25° C., 1 day or 2 days
[1] = test system: Colletotrichum orbiculare; conditions: 25° C., 1 day or 2 days
Fusarium oxysporum = test system: Fusarium oxysporum
[2] = test system: Colletotrichum destructivum; conditions: 25° C., 1 day or 2 days

AFSER (listed as Solanum lycopersicum) [TsORF18-2-5aa-6]
0: Plate antimicrobial activity test Botrytis cinerea (level) (Botrytis cinerea; peptide 1 μM) | Plate antimicrobial activity test Botrytis cinerea (level) (Botrytis cinerea; peptide 10 μM) | Plate antimicrobial activity test Botrytis cinerea (level) (Botrytis cinerea; peptide 100 μM) | Plate antimicrobial activity test Pyricularia oryzae (level) (Pyricularia oryzae; peptide 1 μM) | Plate antimicrobial activity test Pyricularia oryzae (level) (Pyricularia oryzae; peptide 10 μM) | Plate antimicrobial activity test Pyricularia oryzae (level) (Pyricularia oryzae; peptide 100 μM) | Plate antimicrobial activity test Collectotrichum orbiculare (level) ([1]; peptide 1 μM) | Plate antimicrobial activity test Collectotrichum orbiculare (level) ([1]; peptide 10 μM) | Plate antimicrobial activity test Collectotrichum orbiculare (level) ([1]; peptide 100 μM) | Plate antimicrobial activity test Fusarium oxysporum (level) (Fusarium oxysporum) | Plate antimicrobial activity test Colletotrichum destructivum (level) ([2]; peptide 1 μM) | Plate antimicrobial activity test Colletotrichum destructivum (level) ([2]; peptide 10 μM) | Plate antimicrobial activity test Colletotrichum destructivum (level) ([2]; peptide 100 μM)

AFSERTRK (listed as Solanum lycopersicum) [TsORF18-2-8aa-6]
0: Plate antimicrobial activity test Botrytis cinerea (level) (Botrytis cinerea; peptide 1 μM) | Plate antimicrobial activity test Botrytis cinerea (level) (Botrytis cinerea; peptide 10 μM) | Plate antimicrobial activity test Botrytis cinerea (level) (Botrytis cinerea; peptide 100 μM) | Plate antimicrobial activity test Pyricularia oryzae (level) (Pyricularia oryzae; peptide 1 μM) | Plate antimicrobial activity test Pyricularia oryzae (level) (Pyricularia oryzae; peptide 10 μM) | Plate antimicrobial activity test Pyricularia oryzae (level) (Pyricularia oryzae; peptide 100 μM) | Plate antimicrobial activity test Collectotrichum orbiculare (level) ([1]; peptide 1 μM) | Plate antimicrobial activity test Collectotrichum orbiculare (level) ([1]; peptide 10 μM) | Plate antimicrobial activity test Collectotrichum orbiculare (level) ([1]; peptide 100 μM) | Plate antimicrobial activity test Fusarium oxysporum (level) (Fusarium oxysporum) | Plate antimicrobial activity test Colletotrichum destructivum (level) ([2]; peptide 1 μM) | Plate antimicrobial activity test Colletotrichum destructivum (level) ([2]; peptide 10 μM) | Plate antimicrobial activity test Colletotrichum destructivum (level) ([2]; peptide 100 μM)

ERTRK (listed as Solanum lycopersicum) [TsORF18-2-5aa-9]
0: Plate antimicrobial activity test Botrytis cinerea (level) (Botrytis cinerea; peptide 1 μM) | Plate antimicrobial activity test Botrytis cinerea (level) (Botrytis cinerea; peptide 10 μM) | Plate antimicrobial activity test Botrytis cinerea (level) (Botrytis cinerea; peptide 100 μM) | Plate antimicrobial activity test Pyricularia oryzae (level) (Pyricularia oryzae; peptide 1 μM) | Plate antimicrobial activity test Pyricularia oryzae (level) (Pyricularia oryzae; peptide 10 μM) | Plate antimicrobial activity test Pyricularia oryzae (level) (Pyricularia oryzae; peptide 100 μM) | Plate antimicrobial activity test Collectotrichum orbiculare (level) ([1]; peptide 1 μM) | Plate antimicrobial activity test Collectotrichum orbiculare (level) ([1]; peptide 10 μM) | Plate antimicrobial activity test Collectotrichum orbiculare (level) ([1]; peptide 100 μM) | Plate antimicrobial activity test Fusarium oxysporum (level) (Fusarium oxysporum) | Plate antimicrobial activity test Colletotrichum destructivum (level) ([2]; peptide 1 μM) | Plate antimicrobial activity test Colletotrichum destructivum (level) ([2]; peptide 10 μM) | Plate antimicrobial activity test Colletotrichum destructivum (level) ([2]; peptide 100 μM)

FPAFS (listed as Solanum lycopersicum) [TsORF18-2-5aa-4]
0: Plate antimicrobial activity test Botrytis cinerea (level) (Botrytis cinerea; peptide 1 μM) | Plate antimicrobial activity test Botrytis cinerea (level) (Botrytis cinerea; peptide 10 μM) | Plate antimicrobial activity test Botrytis cinerea (level) (Botrytis cinerea; peptide 100 μM) | Plate antimicrobial activity test Pyricularia oryzae (level) (Pyricularia oryzae; peptide 1 μM) | Plate antimicrobial activity test Pyricularia oryzae (level) (Pyricularia oryzae; peptide 10 μM) | Plate antimicrobial activity test Pyricularia oryzae (level) (Pyricularia oryzae; peptide 100 μM) | Plate antimicrobial activity test Collectotrichum orbiculare (level) ([1]; peptide 1 μM) | Plate antimicrobial activity test Collectotrichum orbiculare (level) ([1]; peptide 10 μM) | Plate antimicrobial activity test Collectotrichum orbiculare (level) ([1]; peptide 100 μM) | Plate antimicrobial activity test Fusarium oxysporum (level) (Fusarium oxysporum) | Plate antimicrobial activity test Colletotrichum destructivum (level) ([2]; peptide 1 μM) | Plate antimicrobial activity test Colletotrichum destructivum (level) ([2]; peptide 10 μM) | Plate antimicrobial activity test Colletotrichum destructivum (level) ([2]; peptide 100 μM)

FPAFSERT (listed as Solanum lycopersicum) [TsORF18-2-8aa-4]
0: Plate antimicrobial activity test Botrytis cinerea (level) (Botrytis cinerea; peptide 1 μM) | Plate antimicrobial activity test Botrytis cinerea (level) (Botrytis cinerea; peptide 10 μM) | Plate antimicrobial activity test Botrytis cinerea (level) (Botrytis cinerea; peptide 100 μM) | Plate antimicrobial activity test Pyricularia oryzae (level) (Pyricularia oryzae; peptide 1 μM) | Plate antimicrobial activity test Pyricularia oryzae (level) (Pyricularia oryzae; peptide 10 μM) | Plate antimicrobial activity test Pyricularia oryzae (level) (Pyricularia oryzae; peptide 100 μM) | Plate antimicrobial activity test Collectotrichum orbiculare (level) ([1]; peptide 1 μM) | Plate antimicrobial activity test Collectotrichum orbiculare (level) ([1]; peptide 10 μM) | Plate antimicrobial activity test Collectotrichum orbiculare (level) ([1]; peptide 100 μM) | Plate antimicrobial activity test Fusarium oxysporum (level) (Fusarium oxysporum) | Plate antimicrobial activity test Colletotrichum destructivum (level) ([2]; peptide 1 μM) | Plate antimicrobial activity test Colletotrichum destructivum (level) ([2]; peptide 10 μM) | Plate antimicrobial activity test Colletotrichum destructivum (level) ([2]; peptide 100 μM)

FSERT (listed as Solanum lycopersicum) [TsORF18-2-5aa-7]
0: Plate antimicrobial activity test Botrytis cinerea (level) (Botrytis cinerea; peptide 1 μM) | Plate antimicrobial activity test Botrytis cinerea (level) (Botrytis cinerea; peptide 10 μM) | Plate antimicrobial activity test Botrytis cinerea (level) (Botrytis cinerea; peptide 100 μM) | Plate antimicrobial activity test Pyricularia oryzae (level) (Pyricularia oryzae; peptide 1 μM) | Plate antimicrobial activity test Pyricularia oryzae (level) (Pyricularia oryzae; peptide 10 μM) | Plate antimicrobial activity test Pyricularia oryzae (level) (Pyricularia oryzae; peptide 100 μM) | Plate antimicrobial activity test Collectotrichum orbiculare (level) ([1]; peptide 1 μM) | Plate antimicrobial activity test Collectotrichum orbiculare (level) ([1]; peptide 10 μM) | Plate antimicrobial activity test Collectotrichum orbiculare (level) ([1]; peptide 100 μM) | Plate antimicrobial activity test Fusarium oxysporum (level) (Fusarium oxysporum) | Plate antimicrobial activity test Colletotrichum destructivum (level) ([2]; peptide 1 μM) | Plate antimicrobial activity test Colletotrichum destructivum (level) ([2]; peptide 10 μM) | Plate antimicrobial activity test Colletotrichum destructivum (level) ([2]; peptide 100 μM)

FSERTRKF (listed as Solanum lycopersicum) [TsORF18-2-8aa-7]
0: Plate antimicrobial activity test Botrytis cinerea (level) (Botrytis cinerea; peptide 1 μM) | Plate antimicrobial activity test Botrytis cinerea (level) (Botrytis cinerea; peptide 10 μM) | Plate antimicrobial activity test Botrytis cinerea (level) (Botrytis cinerea; peptide 100 μM) | Plate antimicrobial activity test Pyricularia oryzae (level) (Pyricularia oryzae; peptide 1 μM) | Plate antimicrobial activity test Pyricularia oryzae (level) (Pyricularia oryzae; peptide 10 μM) | Plate antimicrobial activity test Pyricularia oryzae (level) (Pyricularia oryzae; peptide 100 μM) | Plate antimicrobial activity test Collectotrichum orbiculare (level) ([1]; peptide 1 μM) | Plate antimicrobial activity test Collectotrichum orbiculare (level) ([1]; peptide 10 μM) | Plate antimicrobial activity test Collectotrichum orbiculare (level) ([1]; peptide 100 μM) | Plate antimicrobial activity test Fusarium oxysporum (level) (Fusarium oxysporum) | Plate antimicrobial activity test Colletotrichum destructivum (level) ([2]; peptide 1 μM) | Plate antimicrobial activity test Colletotrichum destructivum (level) ([2]; peptide 10 μM) | Plate antimicrobial activity test Colletotrichum destructivum (level) ([2]; peptide 100 μM)

FWRIW (listed as Solanum lycopersicum) [TsORF18-2-5aa-14]
0: Plate antimicrobial activity test Botrytis cinerea (level) (Botrytis cinerea; peptide 1 μM) | Plate antimicrobial activity test Botrytis cinerea (level) (Botrytis cinerea; peptide 10 μM) | Plate antimicrobial activity test Botrytis cinerea (level) (Botrytis cinerea; peptide 100 μM) | Plate antimicrobial activity test Pyricularia oryzae (level) (Pyricularia oryzae; peptide 1 μM) | Plate antimicrobial activity test Pyricularia oryzae (level) (Pyricularia oryzae; peptide 10 μM) | Plate antimicrobial activity test Pyricularia oryzae (level) (Pyricularia oryzae; peptide 100 μM) | Plate antimicrobial activity test Collectotrichum orbiculare (level) ([1]; peptide 1 μM) | Plate antimicrobial activity test Collectotrichum orbiculare (level) ([1]; peptide 10 μM) | Plate antimicrobial activity test Collectotrichum orbiculare (level) ([1]; peptide 100 μM) | Plate antimicrobial activity test Fusarium oxysporum (level) (Fusarium oxysporum) | Plate antimicrobial activity test Colletotrichum destructivum (level) ([2]; peptide 1 μM) | Plate antimicrobial activity test Colletotrichum destructivum (level) ([2]; peptide 10 μM) | Plate antimicrobial activity test Colletotrichum destructivum (level) ([2]; peptide 100 μM)

GFPAF (listed as Solanum lycopersicum) [TsORF18-2-5aa-3]
0: Plate antimicrobial activity test Botrytis cinerea (level) (Botrytis cinerea; peptide 1 μM) | Plate antimicrobial activity test Botrytis cinerea (level) (Botrytis cinerea; peptide 10 μM) | Plate antimicrobial activity test Botrytis cinerea (level) (Botrytis cinerea; peptide 100 μM) | Plate antimicrobial activity test Pyricularia oryzae (level) (Pyricularia oryzae; peptide 1 μM) | Plate antimicrobial activity test Pyricularia oryzae (level) (Pyricularia oryzae; peptide 10 μM) | Plate antimicrobial activity test Pyricularia oryzae (level) (Pyricularia oryzae; peptide 100 μM) | Plate antimicrobial activity test Collectotrichum orbiculare (level) ([1]; peptide 1 μM) | Plate antimicrobial activity test Collectotrichum orbiculare (level) ([1]; peptide 10 μM) | Plate antimicrobial activity test Collectotrichum orbiculare (level) ([1]; peptide 100 μM) | Plate antimicrobial activity test Fusarium oxysporum (level) (Fusarium oxysporum) | Plate antimicrobial activity test Colletotrichum destructivum (level) ([2]; peptide 1 μM) | Plate antimicrobial activity test Colletotrichum destructivum (level) ([2]; peptide 10 μM) | Plate antimicrobial activity test Colletotrichum destructivum (level) ([2]; peptide 100 μM)

GFPAFSER (listed as Solanum lycopersicum) [TsORF18-2-8aa-3]
0: Plate antimicrobial activity test Botrytis cinerea (level) (Botrytis cinerea; peptide 1 μM) | Plate antimicrobial activity test Botrytis cinerea (level) (Botrytis cinerea; peptide 10 μM) | Plate antimicrobial activity test Botrytis cinerea (level) (Botrytis cinerea; peptide 100 μM) | Plate antimicrobial activity test Pyricularia oryzae (level) (Pyricularia oryzae; peptide 1 μM) | Plate antimicrobial activity test Pyricularia oryzae (level) (Pyricularia oryzae; peptide 10 μM) | Plate antimicrobial activity test Pyricularia oryzae (level) (Pyricularia oryzae; peptide 100 μM) | Plate antimicrobial activity test Collectotrichum orbiculare (level) ([1]; peptide 1 μM) | Plate antimicrobial activity test Collectotrichum orbiculare (level) ([1]; peptide 10 μM) | Plate antimicrobial activity test Collectotrichum orbiculare (level) ([1]; peptide 100 μM) | Plate antimicrobial activity test Fusarium oxysporum (level) (Fusarium oxysporum) | Plate antimicrobial activity test Colletotrichum destructivum (level) ([2]; peptide 1 μM) | Plate antimicrobial activity test Colletotrichum destructivum (level) ([2]; peptide 10 μM) | Plate antimicrobial activity test Colletotrichum destructivum (level) ([2]; peptide 100 μM)

ILLSLEIFERKFSRSVWYYGFP [TsORF18-1]
0: Plate antimicrobial activity test Botrytis cinerea (level) (Botrytis cinerea; peptide 1 μM) | Plate antimicrobial activity test Botrytis cinerea (level) (Botrytis cinerea; peptide 10 μM) | Plate antimicrobial activity test Botrytis cinerea (level) (Botrytis cinerea; peptide 100 μM) | Plate antimicrobial activity test Pyricularia oryzae (level) (Pyricularia oryzae; peptide 1 μM) | Plate antimicrobial activity test Pyricularia oryzae (level) (Pyricularia oryzae; peptide 10 μM) | Plate antimicrobial activity test Pyricularia oryzae (level) (Pyricularia oryzae; peptide 100 μM) | Plate antimicrobial activity test Collectotrichum orbiculare (level) ([1]; peptide 1 μM) | Plate antimicrobial activity test Collectotrichum orbiculare (level) ([1]; peptide 10 μM) | Plate antimicrobial activity test Collectotrichum orbiculare (level) ([1]; peptide 100 μM) | Plate antimicrobial activity test Fusarium oxysporum (level) (Fusarium oxysporum) | Plate antimicrobial activity test Colletotrichum destructivum (level) ([2]; peptide 1 μM) | Plate antimicrobial activity test Colletotrichum destructivum (level) ([2]; peptide 10 μM) | Plate antimicrobial activity test Colletotrichum destructivum (level) ([2]; peptide 100 μM)

Reference: patent US11952584B2, “Functional peptides having antimicrobial activity against phytopathogenic microorganisms” (TOYOTA JIDOSHA KABUSHIKI KAISHA, priority 2019, dated 2024)
